Data reported in PMC5214803 (Scientific Reports, 2017).

Target: T1, Apc holoenzyme (Apc core complex plus Apcε) (Aromatoleum aromaticum, UniProt Q5P5G2+Q5P5G4)
T1 construct: gene apc3
Conditions: ATP sites in Apcα and Apcα′ inferred from structure

T1 sequence (Q5P5G4 2-732): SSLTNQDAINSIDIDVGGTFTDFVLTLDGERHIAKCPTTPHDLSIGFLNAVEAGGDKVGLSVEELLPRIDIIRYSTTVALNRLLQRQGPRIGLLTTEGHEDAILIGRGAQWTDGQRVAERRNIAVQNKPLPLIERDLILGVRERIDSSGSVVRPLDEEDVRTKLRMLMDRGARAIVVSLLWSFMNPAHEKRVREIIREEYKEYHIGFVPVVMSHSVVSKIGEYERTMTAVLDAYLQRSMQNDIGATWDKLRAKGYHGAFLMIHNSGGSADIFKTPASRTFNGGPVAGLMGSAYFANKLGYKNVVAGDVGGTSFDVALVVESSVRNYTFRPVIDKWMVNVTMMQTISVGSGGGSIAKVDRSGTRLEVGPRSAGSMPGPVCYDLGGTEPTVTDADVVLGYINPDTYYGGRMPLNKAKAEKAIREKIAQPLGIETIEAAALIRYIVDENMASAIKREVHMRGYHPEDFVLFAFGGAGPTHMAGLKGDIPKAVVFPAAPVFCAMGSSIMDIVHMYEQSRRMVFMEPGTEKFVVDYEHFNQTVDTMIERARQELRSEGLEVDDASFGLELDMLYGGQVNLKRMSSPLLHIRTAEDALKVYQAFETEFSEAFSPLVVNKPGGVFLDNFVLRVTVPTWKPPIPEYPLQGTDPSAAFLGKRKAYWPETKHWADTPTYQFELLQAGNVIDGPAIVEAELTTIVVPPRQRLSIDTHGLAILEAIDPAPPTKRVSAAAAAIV
T1 sequence (Q5P5G2 whole entry): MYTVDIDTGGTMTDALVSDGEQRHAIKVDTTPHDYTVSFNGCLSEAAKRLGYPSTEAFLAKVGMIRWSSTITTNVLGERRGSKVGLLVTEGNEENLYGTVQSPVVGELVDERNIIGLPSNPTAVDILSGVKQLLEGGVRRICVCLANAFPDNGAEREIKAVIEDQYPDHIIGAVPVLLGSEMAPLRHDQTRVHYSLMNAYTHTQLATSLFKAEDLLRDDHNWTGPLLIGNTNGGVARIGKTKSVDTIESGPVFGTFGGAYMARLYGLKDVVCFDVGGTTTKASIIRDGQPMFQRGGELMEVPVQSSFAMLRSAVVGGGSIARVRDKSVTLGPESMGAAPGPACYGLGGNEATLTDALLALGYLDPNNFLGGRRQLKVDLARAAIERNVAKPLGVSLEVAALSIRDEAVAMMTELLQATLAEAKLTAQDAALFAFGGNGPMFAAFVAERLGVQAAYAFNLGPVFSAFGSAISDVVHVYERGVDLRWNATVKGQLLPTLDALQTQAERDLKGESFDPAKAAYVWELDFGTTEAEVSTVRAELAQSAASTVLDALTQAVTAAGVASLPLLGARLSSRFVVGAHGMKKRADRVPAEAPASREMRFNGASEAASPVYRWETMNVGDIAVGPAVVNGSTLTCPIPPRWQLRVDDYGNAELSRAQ
T1 sequence (Q5P5G5 2-684 partner): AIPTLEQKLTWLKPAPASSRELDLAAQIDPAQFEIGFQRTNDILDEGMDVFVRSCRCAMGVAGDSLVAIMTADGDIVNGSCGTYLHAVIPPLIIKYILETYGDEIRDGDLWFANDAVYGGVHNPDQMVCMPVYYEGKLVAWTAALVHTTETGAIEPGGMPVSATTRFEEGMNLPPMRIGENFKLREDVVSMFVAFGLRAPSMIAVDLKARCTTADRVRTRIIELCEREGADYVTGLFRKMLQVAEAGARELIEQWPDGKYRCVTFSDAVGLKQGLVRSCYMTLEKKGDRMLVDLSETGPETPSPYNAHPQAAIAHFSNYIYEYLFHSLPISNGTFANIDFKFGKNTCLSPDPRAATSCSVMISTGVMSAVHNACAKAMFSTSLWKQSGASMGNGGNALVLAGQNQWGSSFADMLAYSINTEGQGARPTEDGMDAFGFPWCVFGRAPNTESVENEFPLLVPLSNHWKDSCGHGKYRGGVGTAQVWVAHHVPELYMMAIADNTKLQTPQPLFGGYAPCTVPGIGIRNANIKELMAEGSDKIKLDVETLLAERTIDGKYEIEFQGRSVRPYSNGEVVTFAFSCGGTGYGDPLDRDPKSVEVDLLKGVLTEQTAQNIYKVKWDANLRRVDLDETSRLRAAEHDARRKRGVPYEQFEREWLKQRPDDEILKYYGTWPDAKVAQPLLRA
T1 sequence (Q5P5G3 whole entry partner): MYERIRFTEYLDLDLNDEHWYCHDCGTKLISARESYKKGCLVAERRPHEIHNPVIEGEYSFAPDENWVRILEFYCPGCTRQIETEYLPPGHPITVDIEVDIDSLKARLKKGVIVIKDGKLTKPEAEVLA
T1 sequence (Q5P5G6 whole entry partner): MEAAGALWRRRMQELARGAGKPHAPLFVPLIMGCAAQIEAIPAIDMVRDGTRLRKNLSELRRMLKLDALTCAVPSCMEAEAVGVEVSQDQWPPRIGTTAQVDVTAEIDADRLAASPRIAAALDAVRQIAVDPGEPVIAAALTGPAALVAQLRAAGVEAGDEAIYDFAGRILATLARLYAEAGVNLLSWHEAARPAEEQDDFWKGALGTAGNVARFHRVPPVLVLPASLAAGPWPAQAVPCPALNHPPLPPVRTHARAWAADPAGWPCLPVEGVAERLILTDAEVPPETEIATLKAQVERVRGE

Nc1ncnc2c1ncn2[C@@H]1O[C@H](COP(=O)(O)OP(=O)(O)OP(=O)(O)O)[C@@H](O)[C@H]1O [ATP]
ATPase activity assay: confirmed by determination of the ATPase activity and carboxylation of acetophenone
